System: 883617-216-R-J1-PDC tumor spheroids, viability
Assay: Anticancer human tumor 883617-216-R-J1-PDC patient-derived bladder carcinoma cell line growth inhibition [PI3K]
Details: spheroids with HUVEC and MSC; for IC50: curve of first compound; for viability, T/C: stronger effect = lower value; active = viability on the fitted dose curve at most 10% of control; inactive = the rest
Outline: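 High-throughput combination screen: PI3K inhibitors crossed with targeted small molecules on complex spheroids of tumor cells, HUVEC and MSCs at 37 degrees C, 5% CO2. Top concentration was at or near clinical Cmax (otherwise 10 microM), with half-log decrements.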

[1] = second compound 0.0316 µM, first compound 0.0316 µM
[2] = second compound 0.0316 µM, first compound 0.1 µM
[3] = second compound 0.1 µM, first compound 0.0316 µM
[4] = second compound 0.1 µM, first compound 0.1 µM
[5] = second compound 0.316 µM, first compound 0.0316 µM
[6] = second compound 0.316 µM, first compound 0.1 µM
[7] = second compound 1 µM, first compound 0.0316 µM
[8] = second compound 1 µM, first compound 0.1 µM
[9] = second compound 3.16 µM, first compound 0.0316 µM
[10] = second compound 3.16 µM, first compound 0.1 µM
[11] = second compound 10 µM, first compound 0.0316 µM
[12] = second compound 10 µM, first compound 0.1 µM
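Note: spheroids exposed to agents for 7 days before the viability read.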

C=CC(=O)N1CCN(c2nc(=O)n(-c3c(C)ccnc3C(C)C)c3nc(-c4c(O)cccc4F)c(F)cc23)C(C)C1 (centres undefined) + Cc1nc(NC(=O)N2CCCC2C(N)=O)sc1-c1ccnc(C(C)(C)C(F)(F)F)c1
< 31.6 nM: IC50 (second compound 0.0316 µM) | IC50 (second compound 0.1 µM) | IC50 (second compound 0.316 µM) | IC50 (second compound 1 µM) | IC50 (second compound 3.16 µM) | IC50 (second compound 10 µM)
active: viability, T/C [10] 6.71% | viability, T/C (second compound 3.16 µM, first compound 0.316 µM) 6.68% | viability, T/C (second compound 3.16 µM, first compound 1 µM) 9.84% | viability, T/C (second compound 3.16 µM, first compound 3.16 µM) 12.8% | viability, T/C (second compound 3.16 µM, first compound 10 µM) 11.2% | viability, T/C [11] 3.61% | viability, T/C [12] 2.75% | viability, T/C (second compound 10 µM, first compound 0.316 µM) 3.18% | viability, T/C (second compound 10 µM, first compound 1 µM) 4.91% | viability, T/C (second compound 10 µM, first compound 3.16 µM) 7.96% | viability, T/C (second compound 10 µM, first compound 10 µM) 6.43%
inactive: viability, T/C [1] 56.5% | viability, T/C [2] 45.7% | viability, T/C (second compound 0.0316 µM, first compound 0.316 µM) 44.1% | viability, T/C (second compound 0.0316 µM, first compound 1 µM) 51.8% | viability, T/C (second compound 0.0316 µM, first compound 3.16 µM) 70.4% | viability, T/C (second compound 0.0316 µM, first compound 10 µM) 60.9% | viability, T/C [3] 37.3% | viability, T/C [4] 35.9% | viability, T/C (second compound 0.1 µM, first compound 0.316 µM) 40.3% | viability, T/C (second compound 0.1 µM, first compound 1 µM) 34.9% | viability, T/C (second compound 0.1 µM, first compound 3.16 µM) 52.9% | viability, T/C (second compound 0.1 µM, first compound 10 µM) 46.2% | viability, T/C [5] 32.5% | viability, T/C [6] 22.4% | viability, T/C (second compound 0.316 µM, first compound 0.316 µM) 25.6% | viability, T/C (second compound 0.316 µM, first compound 1 µM) 27.5% | viability, T/C (second compound 0.316 µM, first compound 3.16 µM) 34.6% | viability, T/C (second compound 0.316 µM, first compound 10 µM) 35% | viability, T/C [7] 14.7% | viability, T/C [8] 12.8% | viability, T/C (second compound 1 µM, first compound 0.316 µM) 13.9% | viability, T/C (second compound 1 µM, first compound 1 µM) 17.1% | viability, T/C (second compound 1 µM, first compound 3.16 µM) 26.2% | viability, T/C (second compound 1 µM, first compound 10 µM) 20.5% | viability, T/C [9] 10.3%

Cn1ncnc1[C@H]1c2n[nH]c(=O)c3cc(F)cc(c23)N[C@@H]1c1ccc(F)cc1 + CC(Nc1ncnc2nc[nH]c12)c1cc2cccc(Cl)c2c(=O)n1-c1ccccc1
72.3 nM: IC50 (second compound 3.16 µM)
inactive: viability, T/C (second compound 0.0316 µM, first compound 0.000316 µM) 99% | viability, T/C (second compound 0.0316 µM, first compound 0.001 µM) 106% | viability, T/C (second compound 0.0316 µM, first compound 0.00316 µM) 72.5% | viability, T/C (second compound 0.0316 µM, first compound 0.01 µM) 86.4% | viability, T/C [1] 76.8% | viability, T/C [2] 51% | viability, T/C (second compound 0.1 µM, first compound 0.000316 µM) 108% | viability, T/C (second compound 0.1 µM, first compound 0.001 µM) 101% | viability, T/C (second compound 0.1 µM, first compound 0.00316 µM) 72.6% | viability, T/C (second compound 0.1 µM, first compound 0.01 µM) 66.1% | viability, T/C [3] 74.9% | viability, T/C [4] 67% | viability, T/C (second compound 0.316 µM, first compound 0.000316 µM) 82.4% | viability, T/C (second compound 0.316 µM, first compound 0.001 µM) 82.6% | viability, T/C (second compound 0.316 µM, first compound 0.00316 µM) 85.1% | viability, T/C (second compound 0.316 µM, first compound 0.01 µM) 70.8% | viability, T/C [5] 54.5% | viability, T/C [6] 65.4% | viability, T/C (second compound 1 µM, first compound 0.000316 µM) 84.6% | viability, T/C (second compound 1 µM, first compound 0.001 µM) 80.1% | viability, T/C (second compound 1 µM, first compound 0.00316 µM) 66.1% | viability, T/C (second compound 1 µM, first compound 0.01 µM) 62% | viability, T/C [7] 62.5% | viability, T/C [8] 57.5% | viability, T/C (second compound 3.16 µM, first compound 0.000316 µM) 81.1% | viability, T/C (second compound 3.16 µM, first compound 0.001 µM) 71% | viability, T/C (second compound 3.16 µM, first compound 0.00316 µM) 60.1% | viability, T/C (second compound 3.16 µM, first compound 0.01 µM) 58.4% | viability, T/C [9] 56.3% | viability, T/C [10] 46.6% | viability, T/C (second compound 10 µM, first compound 0.000316 µM) 61.6% | viability, T/C (second compound 10 µM, first compound 0.001 µM) 41.7% | viability, T/C (second compound 10 µM, first compound 0.00316 µM) 45% | viability, T/C (second compound 10 µM, first compound 0.01 µM) 40.5% | viability, T/C [11] 35.5% | viability, T/C [12] 29.4%
> 100 nM: IC50 (second compound 0.0316 µM) | IC50 (second compound 0.1 µM) | IC50 (second compound 0.316 µM) | IC50 (second compound 1 µM)
0.867 nM: IC50 (second compound 10 µM)

Source: PubChem BioAssay AID1963973 (Molecular Pharmacology Branch, DTP, NCI, 2024)
